In PMC2248166, “Quantitative peptide binding motifs for 19 human and mouse MHC class I molecules derived using positional scanning combinatorial peptide libraries” (Immunome Research, 2008):
Where a SMILES comes first, the peptide text is derived from it.

The molecules below were run against HLA B*1501 (Homo sapiens, UniProt P01889, A329T/A93T/A95T/C349S/D201E/D98Y/E187L/E204Q/E69M/E70A/K202T/N87E/Q94N/R155S/R180W/S121R/S35A/S48A/V306I/V36M/Y140S/Y91S) (assay: biochemical).
Assay type: binding
CC[C@H](C)[C@H](NC(=O)[C@H](CO)NC(=O)[C@@H](N)CCSC)C(=O)N[C@H](C(=O)N[C@@H](CO)C(=O)N[C@@H](Cc1ccccc1)C(=O)N[C@@H](Cc1ccccc1)C(=O)N1CCC[C@H]1C(=O)N[C@@H](Cc1ccccc1)C(=O)O)[C@@H](C)CC [3102.0947] (H-MSIISFFPF-OH) was tested, and the IC50 was 0.17 nM. CSCC[C@H](NC(=O)[C@H](Cc1c[nH]cn1)NC(=O)[C@@H]1CCCN1C(=O)[C@H](CC(C)C)NC(=O)[C@H](Cc1ccccc1)NC(=O)[C@H](CC(N)=O)NC(=O)[C@H](Cc1c[nH]cn1)NC(=O)[C@H](CC(C)C)NC(=O)[C@@H](N)CCSC)C(=O)O [3102.0846] (H-MLHNFLPHM-OH) was tested, and the IC50 was 41 nM. CC[C@H](C)[C@H](NC(=O)[C@H](CCC(=O)O)NC(=O)[C@H](CS)NC(=O)[C@H](CCCNC(=N)N)NC(=O)[C@@H](NC(=O)[C@@H](N)CCCCN)[C@@H](C)CC)C(=O)N[C@H](C(=O)N[C@@H](CO)C(=O)N[C@@H](Cc1ccccc1)C(=O)O)[C@@H](C)O [3102.0909] (H-KIRCEITSF-OH) was tested, and the IC50 was 4.3 nM. In the case of CC(C)C[C@H](NC(=O)[C@H](CCC(=O)O)NC(=O)[C@@H]1CCCN1C(=O)[C@@H](NC(=O)[C@H](Cc1ccc(O)cc1)NC(=O)[C@@H](NC(=O)[C@@H](N)Cc1ccccc1)C(C)C)C(C)C)C(=O)N[C@@H](CO)C(=O)N[C@@H](Cc1ccccc1)C(=O)O [3102.1280] (H-FVYVPELSF-OH), the IC50 is reported as 0.96 nM. CC[C@H](C)[C@H](NC(=O)[C@H](CC(N)=O)NC(=O)[C@@H]1CCCN1C(=O)[C@H](CS)NC(=O)[C@@H](NC(=O)[C@@H](N)CCSC)C(C)C)C(=O)N[C@@H](CC(N)=O)C(=O)N[C@@H](C)C(=O)N[C@@H](Cc1ccccc1)C(=O)O [3102.0876] (H-MVCPNINAF-OH) was tested, and the IC50 was 22 nM. CC[C@H](C)[C@H](NC(=O)[C@H](CCSC)NC(=O)[C@H](C)N)C(=O)N[C@@H](CCC(=O)O)C(=O)N[C@@H](CC(C)C)C(=O)N[C@@H](CS)C(=O)NCC(=O)N[C@@H](C)C(=O)N[C@@H](Cc1ccccc1)C(=O)O [3102.1013] (H-AMIELCGAF-OH) gave an IC50 of 0.34 nM. CC[C@H](C)[C@H](NC(=O)[C@H](CO)NC(=O)[C@@H](N)CCCNC(=N)N)C(=O)N[C@@H](CO)C(=O)N[C@@H](CCCNC(=N)N)C(=O)N[C@H](C(=O)N[C@@H](CCC(=O)O)C(=O)N[C@@H](CC(N)=O)C(=O)N[C@@H](Cc1ccccc1)C(=O)O)[C@@H](C)O [3102.0929] (H-RSISRTENF-OH) was tested, and the IC50 was 4.8 nM. In the case of CC[C@H](C)[C@H](NC(=O)CNC(=O)[C@@H](NC(=O)[C@H](CCCCN)NC(=O)[C@@H](NC(=O)[C@@H](N)CCC(=O)O)[C@@H](C)CC)[C@@H](C)O)C(=O)N[C@@H](CO)C(=O)N[C@@H](CO)C(=O)N[C@@H](Cc1ccccc1)C(=O)O [3102.0969] (H-EIKTGISSF-OH), the IC50 is reported as 90 nM. CC[C@H](C)[C@H](NC(=O)[C@H](CCC(=O)O)NC(=O)[C@@H](N)CCC(=O)O)C(=O)N[C@@H](CO)C(=O)N[C@H](C(=O)N[C@@H](CO)C(=O)N[C@@H](CC(C)C)C(=O)N[C@@H](CO)C(=O)N[C@@H](Cc1ccccc1)C(=O)O)[C@@H](C)O [3102.0958] (H-EEISTSLSF-OH) was tested, and the IC50 was 2.1 nM. Work on CC(C)C[C@H](NC(=O)[C@@H](N)CC(C)C)C(=O)N[C@@H](Cc1c[nH]cn1)C(=O)N[C@@H](CS)C(=O)N[C@H](C(=O)N[C@H](C(=O)N[C@@H](CCC(=O)O)C(=O)N[C@@H](CO)C(=O)N[C@@H](Cc1ccc(O)cc1)C(=O)O)[C@@H](C)O)C(C)C [3102.1022] (H-LLHCVTESY-OH) yielded an IC50 of 1 nM. Molecule CC(C)C[C@H](N)C(=O)N[C@@H](CO)C(=O)N[C@@H](CCCNC(=N)N)C(=O)N[C@H](C(=O)N[C@@H](Cc1ccccc1)C(=O)N[C@@H](Cc1ccccc1)C(=O)N[C@@H](CS)C(=O)N[C@H](C(=O)N[C@@H](Cc1ccc(O)cc1)C(=O)O)C(C)C)C(C)C [3102.0840] (H-LSRVFFCVY-OH) has an IC50 of 2.9 nM. CC[C@H](C)[C@H](NC(=O)CNC(=O)[C@@H]1CCCN1C(=O)[C@@H](NC(=O)[C@H](CCCNC(=N)N)NC(=O)[C@H](CCC(N)=O)NC(=O)[C@H](CCCCN)NC(=O)[C@H](CC(C)C)NC(=O)[C@@H](N)CCCNC(=N)N)[C@@H](C)O)C(=O)O [3102.0640] (H-RLKQRTPGI-OH) gave an IC50 of 17 nM. Molecule CSCC[C@H](N)C(=O)N[C@@H](CO)C(=O)N[C@@H](CO)C(=O)N[C@@H](CO)C(=O)N[C@@H](CCC(N)=O)C(=O)N[C@@H](CC(=O)O)C(=O)N[C@@H](CC(C)C)C(=O)N[C@@H](CO)C(=O)N[C@@H](Cc1ccccc1)C(=O)O [3102.1286] (H-MSSSQDLSF-OH) has an IC50 of 16 nM. In the case of CSCC[C@H](NC(=O)[C@H](Cc1c[nH]cn1)NC(=O)[C@H](CCCCN)NC(=O)[C@H](CC(N)=O)NC(=O)[C@@H](NC(=O)[C@@H](N)CC(N)=O)[C@@H](C)O)C(=O)N[C@@H](CC(C)C)C(=O)N[C@@H](CCC(=O)O)C(=O)N[C@@H](Cc1ccccc1)C(=O)O [3102.1027] (H-NTNKHMLEF-OH), the IC50 is reported as 12 nM. CC[C@H](C)[C@H](NC(=O)[C@H](CC(C)C)NC(=O)[C@@H](N)CO)C(=O)N[C@@H](Cc1ccc(O)cc1)C(=O)N[C@@H](CC(C)C)C(=O)N[C@@H](CS)C(=O)N[C@H](C(=O)N[C@@H](Cc1ccccc1)C(=O)N[C@@H](CCSC)C(=O)O)[C@@H](C)O [3102.1017] (H-SLIYLCTFM-OH) showed an IC50 of 4.5 nM. CC[C@H](C)[C@H](NC(=O)[C@H](CCSC)NC(=O)[C@@H](N)CCSC)C(=O)N[C@@H](CC(=O)O)C(=O)N[C@@H](CC(=O)O)C(=O)N[C@@H](Cc1ccccc1)C(=O)NCC(=O)N[C@H](C(=O)N[C@@H](C)C(=O)O)[C@@H](C)O [3102.0898] (H-MMIDDFGTA-OH) gave an IC50 of 7.6 nM. CC[C@H](C)[C@H](NC(=O)[C@@H](N)CCSC)C(=O)N[C@@H](CCCCN)C(=O)N[C@@H](CC(N)=O)C(=O)N[C@@H](CC(C)C)C(=O)N[C@H](C(=O)N[C@@H](CCC(N)=O)C(=O)N[C@@H](CC(C)C)C(=O)N[C@@H](Cc1ccccc1)C(=O)O)[C@@H](C)O [3102.1037] (H-MIKNLTQLF-OH) was tested, and the IC50 was 5.7 nM. CSCC[C@H](NC(=O)[C@H](CO)NC(=O)[C@H](CS)NC(=O)[C@H](CO)NC(=O)[C@@H](NC(=O)[C@@H](N)CCCCN)C(C)C)C(=O)N[C@@H](CC(C)C)C(=O)N[C@@H](CCC(=O)O)C(=O)N[C@@H](Cc1ccccc1)C(=O)O [3102.1010] (H-KVSCSMLEF-OH) showed an IC50 of 0.84 nM. With CC[C@H](C)[C@H](NC(=O)[C@H](Cc1ccccc1)NC(=O)[C@@H](N)Cc1ccc(O)cc1)C(=O)N[C@@H](CCCCN)C(=O)N[C@@H](Cc1c[nH]cn1)C(=O)N[C@H](C(=O)N[C@@H](CC(C)C)C(=O)N[C@@H](C)C(=O)N[C@@H](Cc1ccccc1)C(=O)O)C(C)C [3102.0907] (H-YFIKHVLAF-OH) the IC50 was 2.5 nM. CC(C)C[C@H](NC(=O)[C@H](Cc1ccc(O)cc1)NC(=O)[C@H](C)NC(=O)[C@@H](N)CCCCN)C(=O)N[C@@H](Cc1ccc(O)cc1)C(=O)N[C@H](C(=O)N[C@@H](CCC(=O)O)C(=O)N[C@@H](Cc1ccc(O)cc1)C(=O)N[C@@H](Cc1ccccc1)C(=O)O)[C@@H](C)O [3102.0995] (H-KAYLYTEYF-OH) showed an IC50 of 7.6 nM. In the case of CSCC[C@H](NC(=O)[C@@H](NC(=O)[C@H](CC(C)C)NC(=O)[C@H](CC(C)C)NC(=O)[C@H](Cc1ccc(O)cc1)NC(=O)[C@H](CCC(N)=O)NC(=O)[C@@H](N)CC(N)=O)[C@@H](C)O)C(=O)N[C@@H](Cc1ccccc1)C(=O)N[C@@H](Cc1ccccc1)C(=O)O [3102.0819] (H-NQYLLTMFF-OH), the IC50 is reported as 1.2 nM. With CC[C@H](C)[C@H](NC(=O)[C@H](CCC(N)=O)NC(=O)[C@H](CCCNC(=N)N)NC(=O)[C@H](CC(C)C)NC(=O)[C@@H](N)CCCCN)C(=O)N[C@H](C(=O)N[C@@H](C)C(=O)N[C@@H](Cc1ccc(O)cc1)C(=O)N[C@@H](Cc1ccccc1)C(=O)O)C(C)C [3102.0815] (H-KLRQIVAYF-OH) the IC50 was 7.6 nM. CC[C@H](C)[C@H](NC(=O)[C@H](CC(N)=O)NC(=O)[C@H](C)NC(=O)[C@H](CCCNC(=N)N)NC(=O)CNC(=O)[C@@H](N)CC(C)C)C(=O)N[C@H](C(=O)N[C@@H](Cc1c[nH]cn1)C(=O)N[C@@H](Cc1ccccc1)C(=O)O)[C@@H](C)O [3102.1006] (H-LGRANITHF-OH) gave an IC50 of 6.7 nM. In the case of CC[C@H](C)[C@H](NC(=O)[C@H](CS)NC(=O)[C@H](CCCNC(=N)N)NC(=O)[C@H](Cc1c[nH]cn1)NC(=O)[C@H](CC(C)C)NC(=O)[C@@H](N)CC(C)C)C(=O)N[C@@H](Cc1ccc(O)cc1)C(=O)N[C@@H](Cc1c[nH]cn1)C(=O)N[C@@H](Cc1ccc(O)cc1)C(=O)O [3102.0866] (H-LLHRCIYHY-OH), the IC50 is reported as 43 nM. With CC[C@H](C)[C@H](NC(=O)[C@H](C)NC(=O)[C@H](CCSC)NC(=O)[C@@H](NC(=O)[C@@H](NC(=O)[C@@H](N)C(C)C)[C@@H](C)CC)[C@@H](C)CC)C(=O)N[C@@H](CC(N)=O)C(=O)N[C@H](C(=O)N[C@@H](Cc1ccccc1)C(=O)O)C(C)C [3102.1303] (H-VIIMAINVF-OH) the IC50 was 26 nM. CSCC[C@H](N)C(=O)N[C@@H](Cc1ccc(O)cc1)C(=O)N[C@@H](CCCCN)C(=O)N[C@@H](CCCCN)C(=O)N[C@@H](C)C(=O)N[C@@H](CCC(=O)O)C(=O)N[C@@H](C)C(=O)N[C@@H](CO)C(=O)N[C@@H](Cc1ccccc1)C(=O)O [3102.0906] (H-MYKKAEASF-OH) showed an IC50 of 69 nM. CC[C@H](C)[C@H](NC(=O)[C@@H](N)Cc1ccc(O)cc1)C(=O)N[C@@H](CO)C(=O)N[C@@H](CCCCN)C(=O)N[C@H](C(=O)N[C@@H](Cc1ccccc1)C(=O)N[C@@H](CCC(=O)O)C(=O)N[C@@H](Cc1c[nH]cn1)C(=O)N[C@H](C(=O)O)C(C)C)C(C)C [3102.0810] (H-YISKVFEHV-OH) was tested, and the IC50 was 94 nM. CC[C@H](C)[C@H](N)C(=O)N[C@@H](CC(C)C)C(=O)N[C@@H](CCCCN)C(=O)N[C@@H](CCCCN)C(=O)N[C@@H](CC(C)C)C(=O)N[C@@H](CO)C(=O)N1CCC[C@H]1C(=O)N[C@@H](Cc1ccc(O)cc1)C(=O)N[C@@H](Cc1ccccc1)C(=O)O [3102.0903] (H-ILKKLSPYF-OH) gave an IC50 of 1.2 nM. Molecule CSCC[C@H](NC(=O)[C@H](CCCCN)NC(=O)[C@H](CCCCN)NC(=O)[C@H](Cc1ccc(O)cc1)NC(=O)[C@@H](NC(=O)[C@@H](N)CC(C)C)C(C)C)C(=O)N[C@@H](CCC(N)=O)C(=O)N[C@@H](CO)C(=O)N[C@@H](Cc1ccc(O)cc1)C(=O)O [3102.0856] (H-LVYKKMQSY-OH) has an IC50 of 46 nM.
